Measurements taken from ChEMBL document CHEMBL2331421, “Amino acid derived quinazolines as Rock/PKA inhibitors” (Bioorg Med Chem Lett, 2013).

Key:
CYP1A2 = molecular target: T1, CYP1A2 (Homo sapiens, UniProt P05177); assay: Inhibition of CYP1A2 (unknown origin) at 10 uM relative to control; type: ADME
T1 sequence (P05177 whole entry): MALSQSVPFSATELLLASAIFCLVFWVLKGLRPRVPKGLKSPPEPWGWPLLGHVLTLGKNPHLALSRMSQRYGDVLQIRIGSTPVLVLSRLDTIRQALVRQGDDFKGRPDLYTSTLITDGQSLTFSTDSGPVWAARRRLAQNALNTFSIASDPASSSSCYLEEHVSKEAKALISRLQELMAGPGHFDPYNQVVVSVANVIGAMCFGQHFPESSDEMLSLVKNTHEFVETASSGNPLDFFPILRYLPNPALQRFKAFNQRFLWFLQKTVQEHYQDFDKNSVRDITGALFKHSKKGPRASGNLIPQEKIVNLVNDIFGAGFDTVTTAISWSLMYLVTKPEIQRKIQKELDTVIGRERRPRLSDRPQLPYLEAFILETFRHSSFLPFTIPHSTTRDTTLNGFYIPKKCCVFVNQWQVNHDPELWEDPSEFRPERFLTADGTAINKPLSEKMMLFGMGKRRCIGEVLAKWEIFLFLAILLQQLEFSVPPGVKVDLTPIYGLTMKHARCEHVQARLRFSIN

CYP2D6 = CYP2D6 (Homo sapiens, UniProt P10635); assay: Inhibition of CYP2D6 (unknown origin) at 10 uM relative to control; type: ADME
Sequence of CYP2D6 (P10635 whole entry): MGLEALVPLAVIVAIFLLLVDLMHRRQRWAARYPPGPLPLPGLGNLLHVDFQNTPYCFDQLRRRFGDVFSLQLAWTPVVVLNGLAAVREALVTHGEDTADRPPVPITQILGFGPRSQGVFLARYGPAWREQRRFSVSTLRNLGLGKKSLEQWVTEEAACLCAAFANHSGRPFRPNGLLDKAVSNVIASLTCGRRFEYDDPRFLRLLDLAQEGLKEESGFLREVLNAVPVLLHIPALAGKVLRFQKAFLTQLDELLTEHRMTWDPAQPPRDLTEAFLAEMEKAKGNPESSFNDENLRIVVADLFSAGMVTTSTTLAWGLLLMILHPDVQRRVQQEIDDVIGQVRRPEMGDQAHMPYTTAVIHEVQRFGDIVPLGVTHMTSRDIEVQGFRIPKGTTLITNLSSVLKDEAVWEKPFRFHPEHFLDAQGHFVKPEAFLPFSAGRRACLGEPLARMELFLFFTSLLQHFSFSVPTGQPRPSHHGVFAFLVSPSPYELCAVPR

[1] = Half life in human liver microsomes; type: ADME, Microsome
[2] = molecular target: Rho-associated protein kinase 1 (Homo sapiens, UniProt Q13464); assay: Inhibition of ROCK1 (unknown origin)
Sequence of Rho-associated protein kinase 1 (Q13464 whole entry): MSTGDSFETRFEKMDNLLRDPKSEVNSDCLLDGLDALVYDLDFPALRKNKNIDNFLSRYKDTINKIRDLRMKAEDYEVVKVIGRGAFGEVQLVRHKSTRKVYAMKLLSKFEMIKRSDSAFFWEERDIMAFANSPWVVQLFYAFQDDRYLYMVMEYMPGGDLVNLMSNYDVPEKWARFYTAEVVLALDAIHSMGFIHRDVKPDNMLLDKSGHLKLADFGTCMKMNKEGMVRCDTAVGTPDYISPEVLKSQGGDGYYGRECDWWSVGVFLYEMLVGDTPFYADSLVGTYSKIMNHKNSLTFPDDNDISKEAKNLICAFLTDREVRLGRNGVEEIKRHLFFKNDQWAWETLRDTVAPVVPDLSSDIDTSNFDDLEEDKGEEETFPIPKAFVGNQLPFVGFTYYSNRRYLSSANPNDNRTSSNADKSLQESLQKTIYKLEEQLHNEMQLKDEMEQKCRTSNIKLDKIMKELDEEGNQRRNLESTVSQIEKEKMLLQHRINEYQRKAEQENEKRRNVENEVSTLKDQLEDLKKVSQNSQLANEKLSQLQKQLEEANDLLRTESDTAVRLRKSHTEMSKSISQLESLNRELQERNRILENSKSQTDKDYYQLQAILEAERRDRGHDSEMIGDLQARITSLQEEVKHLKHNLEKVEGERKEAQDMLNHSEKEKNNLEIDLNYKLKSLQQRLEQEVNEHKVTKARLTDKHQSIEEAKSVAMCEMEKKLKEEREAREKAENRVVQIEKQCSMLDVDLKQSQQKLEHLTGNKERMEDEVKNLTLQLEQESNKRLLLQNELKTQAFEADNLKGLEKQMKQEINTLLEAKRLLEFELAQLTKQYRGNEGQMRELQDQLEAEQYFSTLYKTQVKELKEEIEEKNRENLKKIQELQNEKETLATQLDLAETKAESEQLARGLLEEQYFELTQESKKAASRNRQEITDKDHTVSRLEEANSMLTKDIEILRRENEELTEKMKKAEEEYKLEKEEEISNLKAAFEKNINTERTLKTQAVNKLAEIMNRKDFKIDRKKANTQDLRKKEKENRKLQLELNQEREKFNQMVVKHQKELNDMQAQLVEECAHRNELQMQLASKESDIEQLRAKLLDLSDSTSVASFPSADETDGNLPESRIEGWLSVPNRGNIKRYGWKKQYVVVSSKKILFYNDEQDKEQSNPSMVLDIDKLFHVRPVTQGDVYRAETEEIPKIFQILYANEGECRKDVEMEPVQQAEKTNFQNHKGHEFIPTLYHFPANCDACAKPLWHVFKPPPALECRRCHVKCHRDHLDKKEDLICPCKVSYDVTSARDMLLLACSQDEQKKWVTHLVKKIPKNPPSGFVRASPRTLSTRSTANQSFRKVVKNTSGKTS

CYP3A4 = CYP3A4 (Homo sapiens, UniProt P08684); assay: Inhibition of CYP3A4 (unknown origin) at 10 uM relative to control; type: ADME
[3] = molecular target: Mitogen-activated protein kinase 8 (Homo sapiens, UniProt P45983); assay: Inhibition of JNK1 (unknown origin)
Sequence of Mitogen-activated protein kinase 8 (P45983 whole entry): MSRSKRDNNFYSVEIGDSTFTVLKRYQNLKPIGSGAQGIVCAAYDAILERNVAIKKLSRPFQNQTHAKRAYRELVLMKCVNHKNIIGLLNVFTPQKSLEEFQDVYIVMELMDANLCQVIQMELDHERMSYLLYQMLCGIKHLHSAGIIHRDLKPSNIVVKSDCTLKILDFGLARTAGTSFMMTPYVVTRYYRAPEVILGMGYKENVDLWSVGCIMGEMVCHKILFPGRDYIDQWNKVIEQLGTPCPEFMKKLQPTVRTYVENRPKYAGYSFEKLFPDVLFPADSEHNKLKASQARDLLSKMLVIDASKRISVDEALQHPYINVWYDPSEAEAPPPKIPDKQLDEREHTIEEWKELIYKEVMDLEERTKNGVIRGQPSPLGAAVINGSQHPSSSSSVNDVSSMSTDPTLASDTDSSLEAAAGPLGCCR

[4] = molecular target: Mitogen-activated protein kinase 14 (Homo sapiens, UniProt Q16539); assay: Inhibition of p38alpha (unknown origin)
Sequence of Mitogen-activated protein kinase 14 (Q16539 whole entry): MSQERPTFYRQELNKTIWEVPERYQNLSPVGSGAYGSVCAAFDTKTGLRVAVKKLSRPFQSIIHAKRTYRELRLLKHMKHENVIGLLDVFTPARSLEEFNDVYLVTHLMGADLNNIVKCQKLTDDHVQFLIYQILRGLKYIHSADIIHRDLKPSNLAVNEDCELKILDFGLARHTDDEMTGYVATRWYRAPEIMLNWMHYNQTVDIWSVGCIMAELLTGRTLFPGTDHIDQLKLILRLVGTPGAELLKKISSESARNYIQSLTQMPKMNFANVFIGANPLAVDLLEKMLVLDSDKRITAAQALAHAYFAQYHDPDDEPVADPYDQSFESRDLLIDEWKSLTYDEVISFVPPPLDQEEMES

[5] = molecular target: Rho-associated protein kinase 2 (Homo sapiens, UniProt O75116); assay: Inhibition of human recombinant 6-His-tagged ROCK2 expressed in baculovirus-infected Sf9 cells using LCB-AKRRRLSSLRA-NH2 as substrate after 25 mins by TR-FRET assay
Sequence of Rho-associated protein kinase 2 (O75116 whole entry): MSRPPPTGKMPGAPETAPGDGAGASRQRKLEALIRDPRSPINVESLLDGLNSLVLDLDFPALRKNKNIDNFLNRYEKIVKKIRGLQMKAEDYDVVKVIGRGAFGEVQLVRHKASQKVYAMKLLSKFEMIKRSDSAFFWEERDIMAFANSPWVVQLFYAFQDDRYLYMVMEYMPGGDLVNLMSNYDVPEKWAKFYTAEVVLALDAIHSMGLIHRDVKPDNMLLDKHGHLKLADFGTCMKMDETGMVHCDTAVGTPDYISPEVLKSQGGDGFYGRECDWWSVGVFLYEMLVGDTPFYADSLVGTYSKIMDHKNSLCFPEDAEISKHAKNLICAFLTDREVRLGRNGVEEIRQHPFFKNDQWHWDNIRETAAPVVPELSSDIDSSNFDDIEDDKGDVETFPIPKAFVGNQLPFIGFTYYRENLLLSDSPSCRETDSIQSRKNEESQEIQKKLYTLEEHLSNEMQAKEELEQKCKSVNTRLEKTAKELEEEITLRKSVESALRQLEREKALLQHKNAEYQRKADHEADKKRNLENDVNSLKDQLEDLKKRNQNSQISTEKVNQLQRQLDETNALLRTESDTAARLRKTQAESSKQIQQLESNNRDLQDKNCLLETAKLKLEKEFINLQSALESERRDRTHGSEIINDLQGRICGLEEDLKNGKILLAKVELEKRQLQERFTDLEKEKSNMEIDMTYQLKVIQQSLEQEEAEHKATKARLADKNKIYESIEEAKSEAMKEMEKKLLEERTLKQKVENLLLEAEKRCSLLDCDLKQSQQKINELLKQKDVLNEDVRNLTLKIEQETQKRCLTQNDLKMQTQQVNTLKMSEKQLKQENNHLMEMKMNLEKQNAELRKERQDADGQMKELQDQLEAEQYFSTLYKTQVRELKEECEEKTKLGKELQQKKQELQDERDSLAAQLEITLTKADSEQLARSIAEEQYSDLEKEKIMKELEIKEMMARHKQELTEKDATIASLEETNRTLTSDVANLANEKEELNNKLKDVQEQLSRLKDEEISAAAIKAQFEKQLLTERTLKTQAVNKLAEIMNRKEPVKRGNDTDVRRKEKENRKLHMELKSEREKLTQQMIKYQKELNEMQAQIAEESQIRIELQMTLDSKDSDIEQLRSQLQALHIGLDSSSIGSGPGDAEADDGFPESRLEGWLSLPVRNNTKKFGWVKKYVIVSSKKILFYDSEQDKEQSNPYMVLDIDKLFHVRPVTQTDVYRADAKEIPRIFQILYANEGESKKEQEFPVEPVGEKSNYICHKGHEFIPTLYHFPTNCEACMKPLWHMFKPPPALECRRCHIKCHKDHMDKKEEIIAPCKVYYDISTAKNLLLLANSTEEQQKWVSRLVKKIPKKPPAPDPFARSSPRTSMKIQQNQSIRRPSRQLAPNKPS

[6] = Inhibition of PKA (unknown origin); design: species or system Homo sapiens
[7] = Inhibition of ROCK in rat A7r5 cells assessed as inhibition of myosin light chain bisphosphorylation by Western blot analysis; type: cell-based
[8] = molecular target: Serine/threonine-protein kinase MRCK alpha (Homo sapiens, UniProt Q5VT25); assay: Inhibition of MRCKalpha (unknown origin)
[9] = molecular target: Mitogen-activated protein kinase 10 (Homo sapiens, UniProt P53779); assay: Inhibition of JNK3 (unknown origin)
Sequence of Mitogen-activated protein kinase 10 (P53779 whole entry): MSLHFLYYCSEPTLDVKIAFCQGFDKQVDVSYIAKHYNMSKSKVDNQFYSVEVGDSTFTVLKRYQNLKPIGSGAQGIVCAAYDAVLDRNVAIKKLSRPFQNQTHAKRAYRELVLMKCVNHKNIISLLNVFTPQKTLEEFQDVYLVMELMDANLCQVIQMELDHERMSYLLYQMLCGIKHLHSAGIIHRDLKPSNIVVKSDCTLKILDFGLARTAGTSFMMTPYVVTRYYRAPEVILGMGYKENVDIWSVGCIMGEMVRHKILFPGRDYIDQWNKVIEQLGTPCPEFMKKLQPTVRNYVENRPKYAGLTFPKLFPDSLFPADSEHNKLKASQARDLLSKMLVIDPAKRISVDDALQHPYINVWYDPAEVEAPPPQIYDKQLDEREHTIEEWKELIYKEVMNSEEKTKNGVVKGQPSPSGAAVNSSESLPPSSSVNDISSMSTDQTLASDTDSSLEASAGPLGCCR

[10] = molecular target: Mitogen-activated protein kinase 9 (Homo sapiens, UniProt P45984); assay: Inhibition of JNK2 (unknown origin)
CYP2C9 = CYP2C9 (Homo sapiens, UniProt P11712); assay: Inhibition of CYP2C9 (unknown origin) at 10 uM relative to control; type: ADME
Sequence of CYP2C9 (P11712 whole entry): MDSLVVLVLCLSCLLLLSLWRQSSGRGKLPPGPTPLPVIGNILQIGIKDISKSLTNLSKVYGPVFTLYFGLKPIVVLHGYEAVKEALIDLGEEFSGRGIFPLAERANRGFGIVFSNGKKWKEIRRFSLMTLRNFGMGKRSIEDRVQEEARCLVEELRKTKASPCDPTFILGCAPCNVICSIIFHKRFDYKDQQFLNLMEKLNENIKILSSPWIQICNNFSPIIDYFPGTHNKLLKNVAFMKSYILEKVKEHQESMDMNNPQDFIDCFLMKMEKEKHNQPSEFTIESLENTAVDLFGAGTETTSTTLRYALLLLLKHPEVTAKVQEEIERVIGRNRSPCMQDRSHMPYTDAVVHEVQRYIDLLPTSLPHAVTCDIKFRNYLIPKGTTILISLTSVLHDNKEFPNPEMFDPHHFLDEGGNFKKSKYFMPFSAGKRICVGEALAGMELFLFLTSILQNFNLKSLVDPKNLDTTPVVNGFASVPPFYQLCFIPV

Compound	inhibition at 10 µM (CYP1A2) [%]	inhibition at 10 µM (CYP2D6) [%]	half-life [1] [min]	IC50 [2] [nM]	inhibition at 10 µM (CYP3A4) [%]	IC50 [3] [nM]	IC50 [4] [nM]	IC50 [5] [nM]	IC50 [6] [nM]	IC50 [7] [nM]	IC50 [8] [nM]	IC50 [9] [nM]	IC50 [10] [nM]	inhibition at 10 µM (CYP2C9) [%]
O=c1[nH]c([C@@H]2CNC[C@H]2c2ccc(Cl)cc2)nc2ccc(-c3cn[nH]c3)cc12	65	75	75	1	30	> 1000	> 1000	< 1	2	23	> 1000	> 1000	> 1000	34
COc1cc(-c2cn[nH]c2)cc2c(=O)[nH]c([C@H](N)Cc3cccc(F)c3)nc12	34	57	36	7	63	> 1000	> 1000	7	24	470	> 1000	> 1000	> 1000	10
O=c1[nH]c([C@@H]2CNC[C@H]2c2ccccc2)nc2ccc(-c3cn[nH]c3)cc12	19	72	35	2	19	> 1000	> 1000	1	4	312	> 1000	> 1000	> 1000	5

More lines, now with the values ahead:

inhibition at 10 µM (CYP1A2) [%]	inhibition at 10 µM (CYP2D6) [%]	half-life [1] [min]	IC50 [2] [nM]	inhibition at 10 µM (CYP3A4) [%]	IC50 [3] [nM]	IC50 [4] [nM]	IC50 [5] [nM]	IC50 [6] [nM]	IC50 [7] [nM]	IC50 [8] [nM]	IC50 [9] [nM]	IC50 [10] [nM]	inhibition at 10 µM (CYP2C9) [%]	Compound
10	55	15	< 1	23	> 1000	> 1000	< 1	7	500	> 1000	> 1000	> 1000	83	CN(C)CC(=O)NC(c1ccc(Cl)cc1)c1nc2ccc(-c3cn[nH]c3)cc2c(=O)[nH]1 (stereo not given)
12	89	42	17	31	> 1000	> 1000	9	16	300	> 1000	> 1000	> 1000	38	N[C@@H](Cc1ccc(F)cc1)c1nc2ccc(-c3cn[nH]c3)cc2c(=O)[nH]1
